Some test systems named below: SN12C renal; RXF 393 renal; HCC-2998 colon; SK-MEL-28 melanoma; NCI-H23 lung; HOP-62 NSCLC; MALME-3M melanoma; SK-MEL-5 melanoma; SNB-75 CNS; PC-3 prostate; BT-549 breast; HS 578T breast.
Common to all, as to assay: NCI tumour cell line growth inhibition, 48 h

Structures are written as SMILES.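 Method: 48-hour compound exposure of cells in 96-well plates, five concentrations, linear interpolation of endpoints. Here, GI50 denotes the concentration required for 50% inhibition of growth. TGI marks complete inhibition of growth.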

In the case of `O=C(c1ccccc1)[C@H]1Nc2ccc(Cl)cc2[C@H]2OCCC[C@@H]12`, the TGI in the test with SN12C renal worked out at 37.5 µM; in the test with RXF 393 renal, 32.4 µM; with HCC-2998 colon, 45.8 µM; in the test on SK-MEL-28 melanoma, 32.2 µM; with NCI-H23 lung, 52 µM; with HOP-62 NSCLC, 32.6 µM. The compound further returned a TGI with MALME-3M melanoma of 48.1 µM.

Take `CS/C(=N\C(=S)Nc1ccccc1)Nc1ccccc1`: the TGI in the test with SN12C renal is 67.6 µM; with SK-MEL-5 melanoma, 21.5 µM; in the test with RXF 393 renal, 48.4 µM; in the test with HCC-2998 colon it was 57 µM; with SK-MEL-28 melanoma it was above 100 µM; in the test with SNB-75 CNS, 84.7 µM. The TGI with NCI-H23 lung was above 100 µM; in the test with HOP-62 NSCLC, above 100 µM; in the test with MALME-3M melanoma it was 60.4 µM.

For `NC(=O)NO`, the TGI in the test with PC-3 prostate was above 2500 µM; with SN12C renal, 2390 µM; with SK-MEL-5 melanoma, 2230 µM; with RXF 393 renal it was 1880 µM; in the test on HCC-2998 colon, 1810 µM; in the test on SK-MEL-28 melanoma, above 2500 µM. Further, the TGI was 2310 µM with SNB-75 CNS; 2050 µM in the test on NCI-H23 lung; above 2500 µM with BT-549 breast; above 1220 µM in the test on HS 578T breast; 2220 µM with HOP-62 NSCLC; 2480 µM in the test on MALME-3M melanoma.

On to `CC(=O)Oc1ccc2c(C)cc(=O)oc2c1`, for which the TGI in the test on PC-3 prostate, in the test with SN12C renal, in the test on SK-MEL-5 melanoma, in the test with RXF 393 renal, with HCC-2998 colon and in the test on SK-MEL-28 melanoma was above 100 µM throughout. Also, the TGI in the test on SNB-75 CNS, in the test on NCI-H23 lung, in the test with BT-549 breast, with HS 578T breast, with HOP-62 NSCLC and in the test with MALME-3M melanoma was above 100 µM throughout.

For `COc1cc2nc(-c3cccs3)nc(N3C(c4ccc(O)cc4)=NNC(=O)c4ccccc43)c2cc1OC`, the TGI with PC-3 prostate was 67.9 µM; with SN12C renal it was 50.2 µM; in the test on SK-MEL-5 melanoma, above 100 µM; in the test on RXF 393 renal, 39.6 µM; in the test on HCC-2998 colon, 38.5 µM; in the test with SK-MEL-28 melanoma it was above 100 µM. For the same compound, the TGI in the test on SNB-75 CNS was 64 µM; with NCI-H23 lung it was 78.1 µM; in the test on BT-549 breast, 42.8 µM; with HS 578T breast it was above 100 µM; in the test on HOP-62 NSCLC, above 100 µM; in the test with MALME-3M melanoma, 43.9 µM.

As for `CCCCNc1c(CN)cnc2cc(Cl)ccc12`, the TGI in the test with PC-3 prostate turned out to be 43.1 µM; with SN12C renal it was 37.9 µM; with SK-MEL-5 melanoma, 29.3 µM; in the test with RXF 393 renal, 29.5 µM; with HCC-2998 colon it was 9.63 µM; with SK-MEL-28 melanoma it was 30 µM. The TGI in the test on SNB-75 CNS was found to be 42.3 µM; in the test on NCI-H23 lung, 39.2 µM; in the test on BT-549 breast, 31.8 µM; with HS 578T breast, 37.2 µM; in the test on HOP-62 NSCLC it was 35.4 µM; in the test on MALME-3M melanoma, 34 µM.

For `N=C(N)C(N=Nc1ccccc1)C(N)=O` (configuration not stated), the TGI in the test with PC-3 prostate, in the test on SN12C renal, in the test with SK-MEL-5 melanoma, with RXF 393 renal, in the test with HCC-2998 colon and in the test on SK-MEL-28 melanoma was above 100 µM in each case. Further, the TGI in the test on SNB-75 CNS, in the test with NCI-H23 lung, with BT-549 breast, in the test on HS 578T breast, with HOP-62 NSCLC and in the test on MALME-3M melanoma was above 100 µM in each case.

As to `CN(C)CCCNc1ncnc2nc[nH]c12`, the TGI with PC-3 prostate, in the test with SN12C renal, in the test with SK-MEL-5 melanoma, in the test on RXF 393 renal, in the test with HCC-2998 colon and with SK-MEL-28 melanoma was above 100 µM throughout. Besides, the TGI with NCI-H23 lung, with BT-549 breast, in the test with HS 578T breast, with HOP-62 NSCLC and with MALME-3M melanoma was above 100 µM throughout.

On to `C=CCOC1OC(CS(=O)(=O)O)C(O)C(O)C1O` (configuration not stated), for which the TGI with PC-3 prostate, in the test with SN12C renal, in the test with SK-MEL-5 melanoma, in the test with RXF 393 renal, with HCC-2998 colon and in the test with SK-MEL-28 melanoma was above 100 µM throughout. Moreover, the TGI in the test on SNB-75 CNS, with NCI-H23 lung, with BT-549 breast, with HS 578T breast, in the test with HOP-62 NSCLC and in the test with MALME-3M melanoma was above 100 µM in each case.

In the case of `Cc1ccc2cc3c(ccc4ccccc43)c3c2c1CC3`, the TGI in the test with PC-3 prostate, with SN12C renal, in the test with SK-MEL-5 melanoma, in the test with RXF 393 renal, with HCC-2998 colon and in the test with SK-MEL-28 melanoma was above 100 µM throughout. Also, the TGI with SNB-75 CNS, with NCI-H23 lung, with BT-549 breast, in the test with HS 578T breast, in the test with HOP-62 NSCLC and in the test on MALME-3M melanoma was above 100 µM in each case. In the test on MALME-3M melanoma, the GI50 was above 100 µM.

As to `O=C(O)C(O)Cc1ccccn1` (configuration not stated), the TGI in the test on PC-3 prostate, with SK-MEL-5 melanoma, in the test with RXF 393 renal, with HCC-2998 colon, in the test on SK-MEL-28 melanoma and in the test on NCI-H23 lung was above 100 µM throughout. In addition, the TGI with BT-549 breast, with HS 578T breast, in the test with HOP-62 NSCLC and with MALME-3M melanoma was above 100 µM throughout.

(Values after PubChem BioAssay (NCI).)
